Columns and labels:
[1] = tested on: Dengue 1 virus MY97-10245; test: High-content imaging cell-based flavivirus immunodetection (HCl-CFI) assay, Dengue 1; details: Dengue virus, A549, 48 h, read-out: Dengue 1 virus MY97-10245 in A549 using HCl [Inhibitor/IC50] Qualified AC50
[2] = tested on: Dengue 2 virus MY97-10340; test: High-content imaging cell-based flavivirus immunodetection (HCl-CFI) assay, Dengue 2; details: Dengue virus, A549, 48 h, read-out: Dengue 2 virus MY97-10340 in A549 using HCl [Inhibitor/IC50] Qualified AC50, A549 cells, MOI 0.3, 48 h, viral E protein expression
Procedure: High-Content Imaging Cell-Based Flavivirus Immunodetection (HCl-CFI) Assay
A549 cells (7×10^3 cells per well) in a 384-well plate were infected with the DENV-2 (MY97-10340) strain at an MOI of 0.3. The cells were then treated with 3-fold, 10-point serial dilutions of test compound. After 48 h, the cells were fixed with paraformadehyde, and the viral E protein detected with 4G2 antibody labeled with Dylight™ 488 (GenScript). Cell nuclei were stained with Draq5 (Pierce/Thermo), and images were taken on the Opera imaging system (Perkin Elmer). A dose-response curve was plotted to calculate the effective concentration of compound needed to reduce expression of E protein by 50% (EC50) using GraphPad Prism.
The resulted EC50 values are summarized in Table 1 below: ±≥1 μM; 1 μM>++≥0.1 μM; 0.1 μm>+++

[3] = tested on: Dengue 3 virus MY05-34640-WT-C6/36; test: High-content imaging cell-based flavivirus immunodetection (HCl-CFI) assay, Dengue 3; details: Dengue virus, A549, 48 h, read-out: Dengue 3 virus MY05-34640-WT-C6/36 in A549 using HCl [Inhibitor/IC50] Qualified AC50
[4] = tested on: Dengue 4 virus MY01-22713; test: High-content imaging cell-based flavivirus immunodetection (HCl-CFI) assay, Dengue 4; details: Dengue virus, A549, 48 h, read-out: Dengue 4 virus MY01-22713 in A549 using HCl [Inhibitor/IC50] Qualified AC50, A549 cells, 48 h, viral E protein expression

Structure (SMILES)	EC50 [1] [nM]	EC50 [2] [nM]	EC50 [3] [nM]	EC50 [4] [nM]
CCC1(CC)Cc2sc(NC(=O)Cc3ccc(S(N)(=O)=O)cc3)c(C#N)c2CN1CC1CC(F)(F)C1 [Example 79, N-(3-cyano-5-((3,3-difluorocyclobutyl)methyl)-6,6-diethyl-4,5,6,7-tetrahydrothieno[3,2-c]pyridin-2-yl)-2-(4-sulfamoylphenyl)acetamide]	< 100	< 100	< 100	< 100
N#Cc1c(NC(=O)Cc2ccc3c(c2)S(=O)(=O)NC3)sc2c1CN(Cc1cccc(F)c1)CC2 [Example 25, N-(3-cyano-5-(3-fluorobenzyl)-4,5,6,7-tetrahydrothieno[3,2-c]pyridin-2-yl)-2-(1,1-dioxido-2,3-dihydrobenzo[d]isothiazol-6-yl)acetamide]	100 to 1000	< 100	< 100	< 100
COC(=O)c1cccc(CN2CCc3c(sc(NC(=O)Cc4ccc(S(N)(=O)=O)cc4)c3C#N)C2)c1 [Example 108, Methyl 3-((3-cyano-2-(2-(4-sulfamoylphenyl)acetamido)-4,7-dihydrothieno[2,3-c]pyridin-6(5H)-yl)methyl)benzoate]	100 to 1000	< 100	< 100	< 100
N#Cc1c(NC(=O)Cc2ccc(S(N)(=O)=O)c(F)c2)sc2c1CN(Cc1cccc(F)c1)CC2 [Example 43, N-(3-cyano-5-(3-fluorobenzyl)-4,5,6,7-tetrahydrothieno[3,2-c]pyridin-2-yl)-2-(3-fluoro-4-sulfamoylphenyl)acetamide]	100 to 1000	< 100	< 100	< 100
COCCOc1cc(CC(=O)Nc2sc3c(c2C#N)CN(Cc2cccc(F)c2)C(C)C3)ccc1S(N)(=O)=O (stereo not shown) [Example 86, N-(3-cyano-5-(3-fluorobenzyl)-6-methyl-4,5,6,7-tetrahydrothieno[3,2-c]pyridin-2-yl)-2-(3-(2-methoxyethoxy)-4-sulfamoylphenyl)acetamide]	100 to 1000	< 100	< 100	< 100
N#Cc1c(NC(=O)Cc2ccc3c(c2)CNC3)sc2c1CN(Cc1cccc(F)c1)CC2 [Example 26, N-(3-cyano-5-(3-fluorobenzyl)-4,5,6,7-tetrahydrothieno[3,2-c]pyridin-2-yl)-2-(isoindolin-5-yl)acetamide]	> 1000	> 1000	> 1000	> 1000
COc1cc(Cl)cc(CC(=O)Nc2sc3c(c2C#N)CN(Cc2cccc(F)c2)CC3)c1 [Example 39, 2 (3 chloro-5-methoxyphenyl)-N-(3-cyano-5-(3-fluorobenzyl)-4,5,6,7-tetrahydrothieno[3,2-c]pyridin-2-yl)acetamide]	> 1000	> 1000	100 to 1000	100 to 1000
N#Cc1c(NC(=O)Cc2ccc(S(N)(=O)=O)cc2)sc2c1CN(CC13CC(F)(C1)C3)CC2 [Example 1, N-(3-cyano-5-((3-fluorobicyclo[1.1.1]pentan-1-yl)methyl)-4,5,6,7-tetrahydrothieno[3,2-c]pyridin-2-yl)-2-(4-sulfamoylphenyl)acetamide]	> 1000	100 to 1000	100 to 1000	100 to 1000
CC1Cc2sc(NC(=O)Cc3ccc(S(N)(=O)=O)cc3)c(C#N)c2CN1CCc1ccccc1 (stereo not shown) [Example 67, N-(3-cyano-6-methyl-5-phenethyl-4,5,6,7-tetrahydrothieno[3,2-c]pyridin-2-yl)-2-(4-sulfamoylphenyl)acetamide]	> 1000	< 100	< 100	< 100
CC1(C)Cc2sc(NC(=O)Cc3ccc4c(c3)C(CN)CS4(=O)=O)c(C#N)c2CN1CC1CCCCC1 (stereo not shown) [Example 74, 2-(3-(aminomethyl)-1,1-dioxido-2,3-dihydrobenzo[b]thiophen-5-yl)-N-(3-cyano-5-(cyclohexylmethyl)-6,6-dimethyl-4,5,6,7-tetrahydrothieno[3,2-c]pyridin-2-yl)acetamide]	100 to 1000	100 to 1000	100 to 1000	100 to 1000
N#Cc1c(NC(=O)Cc2ccc(S(N)(=O)=O)cc2)sc2c1CN(CC1CCCC1)CC2 [Example 4, N-(3-cyano-5-(cyclopentylmethyl)-4,5,6,7-tetrahydrothieno[3,2-c]pyridin-2-yl)-2-(4-sulfamoylphenyl)acetamide]	100 to 1000	< 100	100 to 1000	< 100
N#Cc1c(NC(=O)Cc2ccc(S(N)(=O)=O)cc2)sc2c1CCN(Cc1ccccc1F)C2 [Example 99, N-(3-cyano-6-(2-fluorobenzyl)-4,5,6,7-tetrahydrothieno[2,3-c]pyridin-2-yl)-2-(4-sulfamoylphenyl)acetamide]	> 1000	100 to 1000	100 to 1000	100 to 1000
N#Cc1c(NC(=O)Cc2ccc(S(N)(=O)=O)cc2)sc2c1CCN(Cc1c(Cl)cccc1Cl)C2 [Example 112, N-(3-cyano-6-(2,6-dichlorobenzyl)-4,5,6,7-tetrahydrothieno[2,3-c]pyridin-2-yl)-2-(4-sulfamoylphenyl)acetamide]	> 1000	100 to 1000	100 to 1000	< 100
CC1Cc2sc(NC(=O)Cc3ccc(S(N)(=O)=O)cc3)c(C#N)c2CN1CCC1CCCCC1 (stereo not shown) [Example 68, N-(3-cyano-5-(2-cyclohexylethyl)-6-methyl-4,5,6,7-tetrahydrothieno[3,2-c]pyridin-2-yl)-2-(4-sulfamoylphenyl)acetamide]	100 to 1000	< 100	< 100	< 100
CN(C(=O)Cc1ccc(S(N)(=O)=O)cc1)c1sc2c(c1C#N)CN(CC1CCCCC1)C(C)(C)C2 [Example 75, N-(3-cyano-5-(cyclohexylmethyl)-6,6-dimethyl-4,5,6,7-tetrahydrothieno[3,2-c]pyridin-2-yl)-N-methyl-2-(4-sulfamoylphenyl)acetamide]	> 1000	> 1000	> 1000	> 1000
COc1cc(CC(=O)Nc2sc3c(c2C#N)CN(Cc2cccc(F)c2)CC3)ccc1S(C)(=O)=O [Example 30, N-(3-cyano-5-(3-fluorobenzyl)-4,5,6,7-tetrahydrothieno[3,2-c]pyridin-2-yl)-2-(3-methoxy-4-(methylsulfonyl)phenyl)acetamide]	100 to 1000	< 100	< 100	< 100
COc1cc(CC(=O)Nc2sc3c(c2C#N)CN(CC2CCCCC2)C(C)(C)C3)ccc1S(N)(=O)=O [Example 82, N-(3-cyano-5-(cyclohexylmethyl)-6,6-dimethyl-4,5,6,7-tetrahydrothieno[3,2-c]pyridin-2-yl)-2-(3-methoxy-4-sulfamoylphenyl)acetamide]	< 100	< 100	< 100	< 100
Cc1cc(C)cc(CN2CCc3c(sc(NC(=O)Cc4ccc(S(C)(=O)=O)cc4)c3C#N)C2)c1 [Example 118, N-(3-cyano-6-(3,5-dimethylbenzyl)-4,5,6,7-tetrahydrothieno[2,3-c]pyridin-2-yl)-2-(4-(methylsulfonyl)phenyl)acetamide]	> 1000	100 to 1000	100 to 1000	100 to 1000
COc1cccc(CC(=O)Nc2sc3c(c2C#N)CN(Cc2cccc(F)c2)CC3)c1Cl [Example 41, 2-(2-chloro-3-methoxyphenyl)-N-(3-cyano-5-(3-fluorobenzyl)-4,5,6,7-tetrahydrothieno[3,2-c]pyridin-2-yl)acetamide]	> 1000	100 to 1000	100 to 1000	100 to 1000
COc1cc(CC(=O)Nc2sc3c(c2C#N)CN(CC2CCCCC2)CC3)ccc1S(C)(=O)=O [Example 10, N-(3-cyano-5-(cyclohexylmethyl)-4,5,6,7-tetrahydrothieno[3,2-c]pyridin-2-yl)-2-(3-methoxy-4-(methylsulfonyl)phenyl)acetamide]	100 to 1000	< 100	< 100	< 100
CC1(C)CS(=O)(=O)c2ccc(CC(=O)Nc3sc4c(c3C#N)CN(Cc3cccc(F)c3)C(C)(C)C4)cc21 [Example 80, N-(3-cyano-5-(3-fluorobenzyl)-6,6-dimethyl-4,5,6,7-tetrahydrothieno[3,2-c]pyridin-2-yl)-2-(3,3-dimethyl-1,1-dioxido-2,3-dihydrobenzo[b]thiophen-5-yl)acetamide]	100 to 1000	< 100	< 100	< 100
COc1cc(CC(=O)Nc2sc3c(c2C#N)CN(CC2CC(F)(F)C2)CC3)ccc1S(C)(=O)=O [Example 51, N-(3-cyano-5-((3,3-difluorocyclobutyl)methyl)-4,5,6,7-tetrahydrothieno[3,2-c]pyridin-2-yl)-2-(3-methoxy-4-(methylsulfonyl)phenyl)acetamide]	100 to 1000	100 to 1000	100 to 1000	100 to 1000
